Columns and labels:
[1] = tested on: Methamphetamine induced hyperactivity; test: Antagonism of Methamphetamine induced hyperactivity in rats; assay type: in vivo, Male Long-Evans black hooded rats; set-up: key: (+): potentiation of Methamphetamine; (-): antagonism of Methamphetamine; conditions: sign printed with oral ED50; rat, oral 5, 20 and 80 mg./kg.
Experimental: Male Long-Evans black hooded rats, weighing between 100 and 150 grams, were administered the test drugs at oral doses of 5, 20 and 80 mg./kg. 1 hour prior to the administration of Methamphetamine at an intraperitoneal dose of 1 mg./kg. Three animals were tested at each dose level. The rats were placed in individual activity chambers equipped with photocells (Lehigh Valley, Model 1497). Antagonism of Methamphetamine induced hyperactivity was recorded as digital counts received from the photocells at one and two hour intervals. Placebo controls received a volume dose of the 0.5 carboxymethylcellulose vehicle. The data were evaluated by a one-way analysis of variance computer program. ED50 's were calculated by the method of Litchfield and Wilcoxon (J. Pharmacol. Exp. Therap.; 96:99, 1949).
In the results, a (+) indicates a potentiation of Methamphetamine and a (-) is antagonism of Methamphetamine.

[2] = tested on: brain level of homovanillic acid (HVA); test: Effect of Drug Compounds on Brain Level of Homovanillic Acid (HVA); assay type: in vivo, male Long Evans rats; conditions: ratio to HVA level in control group (1.0); rat brain minus cerebella, 0.15 mmoles/kg i.p. standard dose, 2 or 3 hours; only ratios greater than 1.6 considered of practical significance
Experimental: In testing for the effectiveness of the present drug compounds on the brain level of homovanillic acid (HVA), the drugs were administered intraperitoneally to male Long Evans rats (Simonsen) usually as aqueous solutions but in certain cases as suspensions in 0.5% methocel in 0.9% saline. The standard testing dose was 0.15 mmoles/kg. body weight. The test and control groups consisted of 3-5 and 5 animals, respectively. The analyses were performed on brains (minus cerebella) removed 2 or 3 hours later. In the analysis, standard extraction and fluorimetric methods were used.
In the results, the level of brain HVA in each test group is expressed as a ratio to the level of HVA in an accompanying control group that was injected with either a 0.9% saline or a 0.5% solution of methocel. Even though ratios of […] 1.3 usually have statistical significance, only ratios greater than 1.6 are considered to be of practical significance for the pharmacological classification of drugs.

Row | Structure (SMILES) | direction of effect on Methamphetamine [1] | HVA Ratio [2]
1 | CCCCCCCCCCCCCCCC(=O)OCCOCCN1CCN(C2=Nc3cc(Cl)ccc3Nc3ccccc32)CC1 [IX, 8-Chloro-11-[4-2-(2-palmitoyloxyethoxy)-ethylpiperazinyl]-5H-dibenzo[b,e][1,4]diazepine] | (-) | 1.0
2 | OCCOCCN1CCN(C2=Nc3cc(Cl)ccc3Nc3ccccc32)CC1 [VI, 8-Chloro-11-[4-2-(2-hydroxyethoxy)ethyl-1-piperazinyl]-5H-dibenzo[b,e][1,4]diazepine] | (-) | 2.8
3 | COCCOCCN1CCN(C2=Nc3cc(Cl)ccc3Nc3ccccc32)CC1 [VII, 8-Chloro-11[4-2-(2-methoxyethoxy)-ethylpiperazine]-5H-dibenzo[b,e][1,4]diazepine] | (-) | 3.1
4 | OCCOCCOCCN1CCN(C2=Nc3cc(Cl)ccc3Nc3ccccc32)CC1 [VIII, 8-Chloro-11-[4-2-(2-hydroxyethoxyethoxy)-ethylpiperazinyl]-5H-dibenzo[b,e][1,4]diazepine] | (-) | 1.4
5 | CCCCCCCCCCCCCCCC(=O)OCCOCCN1CCN(C2=Nc3cc(Cl)ccc3N(C(=O)CCCCCCCCCCCCCCC)c3ccccc32)CC1 [X, 8-Chloro-11-[4-2-(2-palmitoyloxyethoxy)-ethylpiperazinyl]-5-palmitoyl-dibenzo[b,e][1,4]diazepine] | (-) | –

Reference: patent US4097597A, “Dibenzo[b,e][1,4]diazepines” (Abbott Laboratories, priority 1977, dated 1978)
